Source: article PMC8667612 (Journal of medicinal chemistry, 2021)
Where “and” joins values, the source holds several entries; their conditions need not be identical. Identical values can stand only once.

How the values were obtained:
N. fowleri CYP51 [1] = target: T1, N. fowleri CYP51 (Naegleria fowleri, UniProt A0A6A5BCR7, E4K/I5A/S2A, form not given); conditions: read-out: IC50 (1 h reaction)
N. fowleri CYP51 [2] = target: T1, N. fowleri CYP51; assay type: biochemical; conditions: 0.5 μM P450, 60 s at 37 °C, sterol 3–50 μM

Q: With `O=C(N[C@@H](Cn1ccnc1)c1ccc(-c2ccc(F)cc2)cc1F)c1ccc(-c2nnc(-c3ccccc3)o2)cc1` [VFV, (R)-N-(1-(3,4’-difluoro-[1,1’-biphenyl]-4-yl)-2-(1H-imidazol-1-yl)-ethyl)-4-(5-phenyl-1,3,4-oxadiazol-2-yl)benzamide] as the compound, how does the IC50 (N. fowleri CYP51 [1]) read?
A: Its IC50 is 0.68 µM.

Q: How did the IC50 (N. fowleri CYP51 [1]) turn out when `O=C(N[C@@H](Cn1ccnc1)c1ccc(-c2ccc(F)cc2)cc1Cl)c1ccc(-c2nnc(-c3ccccc3)o2)cc1` [VFV-Cl, (R)-N-(1-(3-chloro-4’-fluoro-[1,1’-biphenyl]-4-yl)-2-(1H-imidazol-1-yl)ethyl)-4-(5-phenyl-1,3,4-oxadiazol-2-yl)benzamide] was run?
A: The IC50 was 5.9 µM and 5.94 µM.

Q: `C[C@@H](c1nc(-c2ccc(C#N)cc2)cs1)[C@](O)(Cn1cncn1)c1cc(F)ccc1F` [isavuconazole, reference compound] was tested. Which IC50 (N. fowleri CYP51 [1]) did it give?
A: The IC50 was 0.96 µM.

Q: With `CC(C)=CCC[C@@H](C)[C@H]1CC[C@@]2(C)C3=C(CC[C@]12C)[C@@]1(C)CC[C@H](O)C(C)(C)[C@@H]1CC3` [lanosterol] as the compound, how does the Km (N. fowleri CYP51 [2]) read?
A: The Km was 48 ± 10 µM.

Q: `C=C(CC[C@@H](C)[C@H]1CC[C@@]2(C)C3=C(CC[C@]12C)[C@@]1(C)CC[C@H](O)[C@@H](C)[C@@H]1CC3)C(C)C` [obtusifoliol] was tested. Which Km (N. fowleri CYP51 [2]) did it give?
A: The Km was 8 ± 1 µM.
